Measured values from patent publication US9023789B2, “Amylin analogs and pharmaceutical compositions thereof” (Novo Nordisk A/S, priority 2012, dated 2015).
Numbered stars: 1 amine (or outer) side, 2 acyl side, 3 side chain; on linkers, the order of the positions; unused ones are H or OH. Bridge positions count the residues as written; N and C are the ends. Side chains are listed from the residue outwards. Peptide text beside a SMILES is read from it. * marks the point of attachment. C20 diacid = O=C(O)CCCCCCCCCCCCCCCCCCC(=O)*; γGlu = O=C(O)[C@H](CCC(=O)[*:2])N[*:1]; AEEA = NCCOCCOCC(=O)O

How the values were obtained:
[1] = biological target: T1, human amylin receptor (membranes from Amylin 3(a)/CRE-luc cells) (Homo sapiens, UniProt O60896+P30988); assay: ASSAY (V) binding to the human amylin receptor (SPA, 125I-rat amylin); settings: for IC50: Table 4, read-out: hAmylin-R bind IC50;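 for all read-outs here: competition binding of cell membranes (35 ng/µL) mixed with SPA beads in 384-well plates at 40 µL total volume, read by scintillation counting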
T1 construct: expressed in transfected cells
T1 sequence (P30988 25-474): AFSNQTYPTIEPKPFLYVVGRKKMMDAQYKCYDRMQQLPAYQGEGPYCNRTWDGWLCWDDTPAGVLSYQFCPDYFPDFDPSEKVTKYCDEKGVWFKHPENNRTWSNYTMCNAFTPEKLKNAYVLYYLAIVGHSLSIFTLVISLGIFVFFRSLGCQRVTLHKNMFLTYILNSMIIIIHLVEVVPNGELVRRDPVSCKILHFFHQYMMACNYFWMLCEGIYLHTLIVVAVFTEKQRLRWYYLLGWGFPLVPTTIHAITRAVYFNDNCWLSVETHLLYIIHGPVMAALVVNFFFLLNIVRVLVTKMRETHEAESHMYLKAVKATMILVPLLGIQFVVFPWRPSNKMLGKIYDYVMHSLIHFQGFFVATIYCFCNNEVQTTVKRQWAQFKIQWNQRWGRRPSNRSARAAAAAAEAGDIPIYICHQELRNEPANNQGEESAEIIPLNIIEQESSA
T1 sequence (O60896 24-148 partner): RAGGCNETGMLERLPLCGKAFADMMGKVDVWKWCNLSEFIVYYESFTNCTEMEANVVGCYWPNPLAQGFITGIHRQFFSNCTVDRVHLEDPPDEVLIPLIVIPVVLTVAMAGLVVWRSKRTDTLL

[2] = biological target: T2, rat amylin receptor (rat calcitonin receptor + rat RAMP 3) (Rattus norvegicus, UniProt P32214+Q9JJ73); assay: ASSAY (VI) binding to the rat amylin receptor; settings: for IC50: binding to rat amylin receptor, read-out: rAmylin-R bind IC50
T2 construct: expressed in transfected cells; host or cells: BHK tk'ts 13 (transient, FuGENE 6), membranes
T2 sequence (P32214 25-479 isoform P32214-2 limits assumed): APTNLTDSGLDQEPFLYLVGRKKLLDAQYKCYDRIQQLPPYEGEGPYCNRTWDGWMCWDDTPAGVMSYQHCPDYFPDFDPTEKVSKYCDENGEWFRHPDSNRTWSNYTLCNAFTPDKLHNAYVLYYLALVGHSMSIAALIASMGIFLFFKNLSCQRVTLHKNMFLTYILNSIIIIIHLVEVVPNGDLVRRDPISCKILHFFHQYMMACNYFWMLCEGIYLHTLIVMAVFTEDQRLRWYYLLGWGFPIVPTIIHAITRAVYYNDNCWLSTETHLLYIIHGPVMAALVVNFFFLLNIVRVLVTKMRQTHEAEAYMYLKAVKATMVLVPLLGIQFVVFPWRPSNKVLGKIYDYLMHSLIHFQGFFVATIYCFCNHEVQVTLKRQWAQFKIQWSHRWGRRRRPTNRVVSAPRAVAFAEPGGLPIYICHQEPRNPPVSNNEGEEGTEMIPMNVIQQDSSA
T2 sequence (Q9JJ73 23-147 partner): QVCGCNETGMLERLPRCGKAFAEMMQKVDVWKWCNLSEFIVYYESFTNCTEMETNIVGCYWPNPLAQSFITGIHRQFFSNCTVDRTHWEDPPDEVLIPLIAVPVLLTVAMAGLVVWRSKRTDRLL
In short: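 Binding to the rat amylin receptor was determined with membrane preparations. The receptor was expressed by transiently transfecting BHK tk′ts 13 cells with rat calcitonin receptor, using FuGENE® 6 (Roche) according to the manufacturer's recommendations. Roughly 48 hours later the cells were harvested and their membranes isolated.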

[3] = biological target: T3, human amylin 3(a) receptor (human calcitonin receptor + RAMP-3) in BHK570 cells (Homo sapiens, UniProt O60896+P30988); assay: ASSAY (II)a functional assay, human amylin receptor (CRE luciferase); type: cell-based; settings: for EC50: human amylin receptor functional potency, assay (II), read-out: hAmylin-R funct. EC50
T3 construct: expressed in transfected cells
In short: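 Cells were seeded and cultured overnight, then incubated with standard or sample for 3 h at 37° C in serum-containing medium at pH 7.4. The medium was then swapped for PBS, LucLite was added for 30 min at room temperature, and luminescence was recorded. Cells were BHK with CRE-luc and calcitonin receptor, ± RAMP-3.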

[4] = Table 5, selectivity, hCTR bind IC50 / hAmylin-R bind IC50
[5] = Table 5a, selectivity, hCTR bind IC50 / hAmylin-R bind IC50
[6] = Table 5b, selectivity, hCTR bind IC50 / hAmylin-R bind IC50
[7] = Table 5c, selectivity, hCTR bind IC50 / hAmylin-R bind IC50
[8] = Table 7, human binding selectivity, included for comparison
[9] = Table 7a (preferred compounds), human binding selectivity, included for comparison
[10] = ratio of human calcitonin receptor binding IC50 to human amylin receptor binding IC50
[11] = Table 7, rat binding selectivity, rCTR IC50 / rAmylin-R IC50
[12] = Table 7a (preferred compounds), rat binding selectivity, rCTR IC50 / rAmylin-R IC50
[13] = ratio of rCTR bind IC50 to rAmylin-R bind IC50
[14] = hCTR funct. EC50 divided by hAmylin-R funct. EC50
[15] = hCTR funct. EC50 over hAmylin-R funct. EC50
[16] = human functional selectivity: hCTR funct. EC50 / hAmylin-R funct. EC50

Row | Ratio hCT/hAmylin binding [1, 4] | Ratio hCT/hAmylin binding [1, 5] | Ratio hCT/hAmylin binding [1, 6] | Ratio hCT/hAmylin binding [1, 7] | Ratio hCT/hAmylin binding [1, 8] | Ratio hCT/hAmylin binding [1, 9] | Ratio hCT/hAmylin binding [1, 10] | IC50 ([2]; Table 7) [nM] | Ratio rCT/rAmylin binding [2, 11] | Ratio rCT/rAmylin binding [2, 12] | Ratio rCT/rAmylin binding [2, 13] | Ratio hCT/hAmylin funct. [3, 14] | Ratio hCT/hAmylin funct. [3, 15] | Ratio hCT/hAmylin funct. [3, 16] | IC50 [1] [nM] | EC50 [3] [nM] | SMILES
1 | 100.4 | 100.4 | 100.4 | 100.4 | 100.4 | 100.4 | 100.4 | 2.7 | 79.8 | 79.8 | 79.8 | 10.0 | 10.0 | 10.0 | – | – | CC[C@H](C)[C@H](NC(=O)[C@H](C)NC(=O)CNC(=O)[C@H](Cc1ccccc1)NC(=O)[C@H](CC(N)=O)NC(=O)[C@@H]1CCCN1C(=O)[C@H](CO)NC(=O)[C@H](CO)NC(=O)[C@H](Cc1c[nH]cn1)NC(=O)[C@H](CCCNC(=N)N)NC(=O)[C@H](CC(C)C)NC(=O)[C@H](Cc1ccccc1)NC(=O)[C@H](Cc1c[nH]cn1)NC(=O)[C@H](C)NC(=O)[C@H](CC(C)C)NC(=O)[C@H](CCCNC(=N)N)NC(=O)[C@H](CCC(N)=O)NC(=O)[C@@H](NC(=O)[C@H](C)NC(=O)[C@@H]1CSSC[C@H](NC(=O)[C@H](CCCNC(=N)N)NC(=O)CNC(=O)CC[C@H](NC(=O)CCCCCCCCCCCCCCCCCCC(=O)O)C(=O)O)C(=O)N[C@@H](CC(N)=O)C(=O)N[C@@H]([C@@H](C)O)C(=O)N[C@@H](C)C(=O)N[C@@H]([C@@H](C)O)C(=O)N1)[C@@H](C)O)C(=O)N1CCC[C@H]1C(=O)N[C@@H](CO)C(=O)N[C@@H](CO)C(=O)N[C@H](C(=O)N[C@@H](CC(N)=O)C(=O)N[C@H](C(=O)NCC(=O)N[C@@H](CO)C(=O)N[C@@H](CC(N)=O)C(=O)N[C@H](C(=O)N[C@@H](Cc1ccc(O)cc1)C(N)=O)[C@@H](C)O)C(C)C)[C@@H](C)O [Example 99] ({C20 diacid-γGlu}-GRCNTATCATQRLAHFLRHSSPNFGAIPSSTNVGSNTY-NH2; disulfide 3-8)
2 | 139.6 | 139.6 | 139.6 | 139.6 | 139.6 | 139.6 | 139.6 | 1.64 | 87.0 | 87.0 | 87.0 | 59.2 | 59.2 | 59.2 | 0.636 | 0.215 | CC[C@H](C)[C@H](NC(=O)[C@H](C)NC(=O)CNC(=O)[C@H](Cc1ccccc1)NC(=O)[C@H](CC(N)=O)NC(=O)[C@@H]1CCCN1C(=O)[C@H](CO)NC(=O)[C@H](CO)NC(=O)[C@H](Cc1c[nH]cn1)NC(=O)[C@H](CCCNC(=N)N)NC(=O)[C@H](CC(C)C)NC(=O)[C@H](Cc1ccccc1)NC(=O)[C@H](CCCNC(=N)N)NC(=O)[C@H](C)NC(=O)[C@H](CC(C)C)NC(=O)[C@H](CCCNC(=N)N)NC(=O)[C@H](CCC(N)=O)NC(=O)[C@@H](NC(=O)[C@H](C)NC(=O)[C@@H]1CSSC[C@H](NC(=O)[C@@H](N)CCCCNC(=O)COCCOCCNC(=O)CC[C@H](NC(=O)CCCCCCCCCCCCCCCCCCC(=O)O)C(=O)O)C(=O)N[C@@H](CC(N)=O)C(=O)N[C@@H]([C@@H](C)O)C(=O)N[C@@H](C)C(=O)N[C@@H]([C@@H](C)O)C(=O)N1)[C@@H](C)O)C(=O)N1CCC[C@H]1C(=O)N[C@@H](CO)C(=O)N[C@@H](CO)C(=O)N[C@H](C(=O)N[C@@H](CC(N)=O)C(=O)N[C@H](C(=O)NCC(=O)N[C@@H](CO)C(=O)N[C@@H](CC(N)=O)C(=O)N[C@H](C(=O)N[C@@H](Cc1ccc(O)cc1)C(N)=O)[C@@H](C)O)C(C)C)[C@@H](C)O [Example 82] (H-K([AEEA-γGlu-C20 diacid])CNTATCATQRLARFLRHSSPNFGAIPSSTNVGSNTY-NH2; disulfide 2-7; N-terminus assumed)
3 | 65.3 | 65.3 | 65.3 | 65.3 | 65.3 | 65.3 | 65.3 | 0.45 | 104.0 | 104.0 | 104.0 | 13.3 | 13.3 | 13.3 | 0.133 | 0.094 | CC[C@H](C)[C@H](NC(=O)[C@H](C)NC(=O)CNC(=O)[C@H](Cc1ccccc1)NC(=O)[C@H](CC(N)=O)NC(=O)[C@@H]1CCCN1C(=O)[C@H](CO)NC(=O)[C@H](CO)NC(=O)[C@H](Cc1c[nH]cn1)NC(=O)[C@H](CCCNC(=N)N)NC(=O)[C@H](CC(C)C)NC(=O)[C@H](Cc1ccccc1)NC(=O)[C@H](Cc1c[nH]cn1)NC(=O)[C@H](C)NC(=O)[C@H](CC(C)C)NC(=O)[C@H](CCCNC(=N)N)NC(=O)[C@H](CCC(N)=O)NC(=O)[C@@H](NC(=O)[C@H](C)NC(=O)[C@@H]1CSSC[C@H](NC(=O)[C@@H](N)CCCCNC(=O)COCCOCCNC(=O)CC[C@H](NC(=O)CCCCCCCCCCCCCCCCCCC(=O)O)C(=O)O)C(=O)N[C@@H](CC(N)=O)C(=O)N[C@@H]([C@@H](C)O)C(=O)N[C@@H](C)C(=O)N[C@@H]([C@@H](C)O)C(=O)N1)[C@@H](C)O)C(=O)N1CCC[C@H]1C(=O)N[C@@H](CO)C(=O)N[C@@H](CO)C(=O)N[C@H](C(=O)N[C@@H](CC(N)=O)C(=O)N[C@H](C(=O)NCC(=O)N[C@@H](CO)C(=O)N[C@@H](CC(N)=O)C(=O)N[C@H](C(=O)N[C@@H](Cc1ccc(O)cc1)C(N)=O)[C@@H](C)O)C(C)C)[C@@H](C)O [Example 69] (H-K([AEEA-γGlu-C20 diacid])CNTATCATQRLAHFLRHSSPNFGAIPSSTNVGSNTY-NH2; disulfide 2-7; N-terminus assumed)
